Converted amounts (≈) assume the structure as drawn. Where two headings read alike, the source gives them in different places.
Tests used:
E. coli ATCC 25922 = assay: Broth microdilution MIC, E. coli ATCC 25922; type: cell-based; details: Escherichia coli
How it was run: (§1)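 Following CLSI guidance, growth inhibition is measured in Mueller-Hinton broth with divalent cations. Inoculum 5×10^5 CFU/mL; incubation 16-20 hours, 37° C; endpoint is visual absence of growth.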

E. coli AG100 = assay: Broth microdilution MIC, E. coli AG100 (wild-type parent); type: cell-based; details: Escherichia coli; wild-type parent E. coli AG100, broth microdilution; read-out: MIC E. coli AG100
How it was run: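 Starting inoculum of 5×10^5 CFU/mL, from colonies grown 3-5 h in Mueller-Hinton broth with divalent cations, added to two-fold compound dilution series.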

E. coli 901C = assay: microbe, parasite or virus in culture; type: cell-based; details: Escherichia coli; hyper-permeable E. coli 901C, broth microdilution; read-out: MIC E. coli 901C
How it was run: as §1

E. coli AG100A = assay: microbe, parasite or virus in culture; type: cell-based; details: Escherichia coli, read-out: MIC E. coli AG100A
How it was run: as §1

K. pneumoniae UMM = assay: microbe, parasite or virus in culture; type: cell-based; details: Klebsiella pneumoniae; K. pneumoniae UMM producing SHV-5 and KPC-2; read-out: MIC K. pneumoniae UMM
How it was run: as §1

[1] = test system: N. gonorrhoeae ATCC 49226; assay: Liquid broth MIC, N. gonorrhoeae ATCC 49226; type: cell-based; details: Neisseria gonorrhoeae, ATCC49226; N. gonorrhoeae ATCC 49226, liquid broth; read-out: Minimum Inhibitory Concentration, N. gonorrhoeae ATCC 49226
Description: (§2) Additional antibacterial testing of the series was performed in wild-type reference strains of N. gonorrhoeae (ATCC 49226, FA1090, WHO F and FA19). Liquid broth-based assays were used for antibacterial testing of PBP inhibitors in Neisseria gonorrhoeae. Briefly, cryo-preserved bacterial cultures of clinical strains are streaked for isolation on GC Base agar (BD #228950 at 36 g/L autoclaved at 121° C. for 20 minutes to sterilize) with 1% Kellogg's supplement (40 g glucose, 0.5 g glutamine, 0.05 g ferric nitrate and 2 mg cocarboxylase per 100 mL deionized water filter sterilized through 0.2 μm syringe filters). Following incubation at 36° C. and 5% CO2 to allow growth of colonies, strains are aseptically sub-cultured from original agar plate onto 3 agar plates per strain 24 hours before inoculum preparation. 2-fold serial dilutions of test compounds are conducted in a 96 well plate with a final volume of 150 μL per well at 4/3-fold the final desired concentration. For preparation of assay inoculum, a direct suspension is prepared by aseptically swabbing all colonies from sub-cultured agar plates into culture tubes containing 2 mL of fresh GC broth with […]. After the dilution plates are set up, direct suspensions are then diluted in a cuvette containing GC broth (15 g proteose peptone 43, 1 g corn starch, 4 g dipotassium phosphate, 1 g monopotassium phosphate and 5 g sodium chloride per liter of deionized water are mixed on a stir plate for 20 minutes, pH adjusted to 7.2+/−0.2 pH units with 1 N HCl, centrifuged at 10,000×g for 20 minutes to pellet undissolved corn starch and then autoclaved at 121° C. for 20 minutes to sterilize) and the optical density is measured at 600 nm. Inocula are diluted such that 50 μL of this culture in […] results in a starting bacterial concentration of 5×10^5 CFU/mL when added to the dilution plates. The plates are incubated 40-42 hours at 36° C. and 5% CO2. The MIC is read visually as the lowest concentration well with no bacterial growth.

N. gonorrhoeae FA1090 = assay: Liquid broth MIC, N. gonorrhoeae FA1090; type: cell-based; details: Neisseria gonorrhoeae; N. gonorrhoeae FA1090, liquid broth; read-out: Minimum Inhibitory Concentration, N. gonorrhoeae FA1090
Description: as §2

N. gonorrhoeae WHO F = assay: Liquid broth MIC, N. gonorrhoeae WHO F; type: cell-based; details: Neisseria gonorrhoeae; N. gonorrhoeae WHO F, liquid broth; read-out: Minimum Inhibitory Concentration, N. gonorrhoeae WHO F
Description: as §2

N. gonorrhoeae FA19 = assay: Liquid broth MIC, N. gonorrhoeae FA19; type: cell-based; details: Neisseria gonorrhoeae; N. gonorrhoeae FA19, liquid broth; read-out: Minimum Inhibitory Concentration, N. gonorrhoeae FA19
Description: as §2

E. coli PBP3 = E. coli PBP3 (Escherichia coli (strain K12), UniProt P0AD68); assay: E. coli PBP3 Bocillin-FL fluorescence polarization competition binding assay
How it was run: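 Polarization at 490/520 nm was monitored for 60 minutes in pH 8.0 Hepes buffer containing 300 mM NaCl and 5% glycerol, with compound spanning 0–1000 μM.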

[2] = test system: engineered strain of Escherichia coli harboring CTX-M15; assay: microbe, parasite or virus in culture; type: cell-based; details: Escherichia coli, read-out: Microbiological Activity (MIC in mg/L), E. coli DH5α/pLBII-CTX-M15, engineered strain producing CTX-M15
Description: Briefly, cryo-preserved bacterial cultures of challenge strains are streaked for isolation on appropriate agar medium, in this case Mueller Hinton II agar. Following incubation to allow growth of the colonies, plates are sealed with parafilm and stored refrigerated for up to two weeks. For preparation of assay inoculum and to ensure low variability, at least 5 colonies are picked from the agar plates with an inoculating loop and aseptically transferred to a culture tube containing 3 mL of Mueller-Hinton Broth (supplemented with divalent cations to required levels based on Manufacturers' certification). The broth culture is grown for 3-5 hours at 37° C. with shaking at 200 rpm. Meanwhile, 2-fold serial dilutions of test compounds are conducted in a 96 well plate with a final volume of 75 μL per well at 2-fold the final desired concentration. After the dilution plates are set up the growing cultures are then diluted in a cuvette containing MH II broth and the optical density is measured at 600 nm. The Inoculum is diluted such that 75 μL of this culture in Mueller-Hinton Broth results in a starting bacterial concentration of 5×10^5 CFU/mL when added to the dilution plates. The plates are incubated for 16-20 hours at 37° C. The MIC values are read visually as the lowest concentration well with no bacterial growth.
To determine if test compounds were affected by CTX-M15, the most abundant extended spectrum […] in clinical settings worldwide, the inhibition of the growth of an engineered strain of Escherichia coli harboring CTX-M15 was tested. This strain was constructed by cloning the gene encoding CTX-M15 into the NdeI and BamHI restriction endonuclease sites of plasmid pLBII, placing the gene(s) under the control of the Lac promoter. The constructed expression plasmid for CTX-M15 was used to transform competent E. coli DH5α cells to make the engineered strain, including an empty pLBII vector control strain. The classic cell based broth microdilution MIC assay was employed as described above with the addition of control antibiotics, known to be degraded by β-lactamases (Ceftazidime, piperacillin and piperacillin+tazobactam).

E. coli D22 = assay: microbe, parasite or virus in culture; type: cell-based; details: Escherichia coli; hyper-permeable E. coli D22, broth microdilution; read-out: MIC E. coli D22
How it was run: as §1

K. pneumoniae SI-117 = assay: microbe, parasite or virus in culture; type: cell-based; details: Klebsiella pneumoniae, SI117, read-out: MIC K. pneumoniae SI-117
How it was run: as §1

K. pneumoniae 848844 = assay: microbe, parasite or virus in culture; type: cell-based, Klebsiella pneumoniae; details: Klebsiella pneumoniae; K. pneumoniae 848844 producing SHV-11 and KPC-2; read-out: MIC K. pneumoniae 848844
How it was run: as §1

[3] = fluorescence polarization competition binding with Bocillin-FL, read-out: E. coli K12 PBP3 Potency

Chain of E. coli PBP3 (P0AD68 whole entry): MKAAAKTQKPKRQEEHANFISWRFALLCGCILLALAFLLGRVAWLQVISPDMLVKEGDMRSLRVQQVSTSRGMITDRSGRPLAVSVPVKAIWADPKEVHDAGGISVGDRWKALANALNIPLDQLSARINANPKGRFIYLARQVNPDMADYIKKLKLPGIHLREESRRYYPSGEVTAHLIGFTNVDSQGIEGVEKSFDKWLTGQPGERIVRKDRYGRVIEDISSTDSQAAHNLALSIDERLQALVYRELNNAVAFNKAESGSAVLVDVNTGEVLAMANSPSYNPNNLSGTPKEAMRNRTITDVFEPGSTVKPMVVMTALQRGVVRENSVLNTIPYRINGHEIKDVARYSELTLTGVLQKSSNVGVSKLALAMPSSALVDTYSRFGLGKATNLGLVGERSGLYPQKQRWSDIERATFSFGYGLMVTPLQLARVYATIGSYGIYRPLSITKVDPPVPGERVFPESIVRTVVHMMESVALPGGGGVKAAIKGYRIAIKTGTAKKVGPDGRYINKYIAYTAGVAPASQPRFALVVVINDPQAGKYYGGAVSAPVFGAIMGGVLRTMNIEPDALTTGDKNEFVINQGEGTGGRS

| SMILES | MIC [1] [µg/mL] | MIC (N. gonorrhoeae FA1090) [µg/mL] | MIC (N. gonorrhoeae WHO F) [µg/mL] | MIC (N. gonorrhoeae FA19) [µg/mL] | EC50 (E. coli PBP3; [3]) [µM] | MIC [2] [mg/L] | EC50 (E. coli PBP3) [µM] | further results |
| --- | --- | --- | --- | --- | --- | --- | --- | --- |
| CCN1CCN(C(=O)N[C@@H](C(=O)N[C@H]2Cc3cccc(C(=O)O)c3OB2O)c2ccc(O)c(O)c2)C(=O)C1=O [Example 39, (R)-3-((R)-2-(3,4-dihydroxyphenyl)-2-(4-ethyl-2,3-dioxopiperazine-1-carboxamido)acetamido)-2-hydroxy-3,4-dihydro-2H-benzo[e][1,2]oxaborinine-8-carboxylic acid] | 1 to 2 (≈ 1.85 to 3.7 µM) | < 0.125 | 0.25 to 0.5 (≈ 0.463 to 0.925 µM) | 1 to 2 (≈ 1.85 to 3.7 µM) | – | – | – | MIC (E. coli ATCC 25922; ATCC25922, E. coli ATCC 25922, broth microdilution, read-out: MIC E. coli 25922): 8 to 16 µg/mL; MIC (E. coli AG100): 8 to 16 µg/mL; MIC (E. coli 901C): 0.5 to 1 µg/mL; MIC (E. coli AG100A): 2 to 4 µg/mL; MIC (K. pneumoniae UMM): 8 to 16 µg/mL |
| C[C@@H](O)[C@@H](NC(=O)N1CCN(CCF)C(=O)C1=O)C(=O)N[C@H]1Cc2cc(O)c(O)c(C(=O)O)c2OB1O [Example 94, (R)-3-((2R,3R)-2-(4-(2-fluoroethyl)-2,3-dioxopiperazine-1-carboxamido)-3-hydroxybutanamido)-2,6,7-trihydroxy-3,4-dihydro-2H-benzo[e][1,2]oxaborinine-8-carboxylic acid] | – | – | – | – | > 500 | 128 to 256 (≈ 243 to 486 µM) | – | – |
| CCN1CCN(C(=O)N[C@@H](C(=O)N[C@H]2Cc3cc(O)c(O)c(C(=O)O)c3OB2O)[C@@H](C)O)C(=O)C1=O [Example 95, (R)-3-((2R,3R)-2-(4-ethyl-2,3-dioxopiperazine-1-carboxamido)-3-hydroxybutanamido)-2,6,7-trihydroxy-3,4-dihydro-2H-benzo[e][1,2]oxaborinine-8-carboxylic acid] | – | – | – | – | > 500 | 128 to 256 (≈ 252 to 504 µM) | – | – |
| CCN1CCN(C(=O)N[C@@H](C(=O)N[C@H]2Cc3cc(O)c(O)c(C(=O)O)c3OB2O)[C@H](C)O)C(=O)C1=O [Example 96, (R)-3-((2R,3S)-2-(4-ethyl-2,3-dioxopiperazine-1-carboxamido)-3-hydroxybutanamido)-2,6,7-trihydroxy-3,4-dihydro-2H-benzo[e][1,2]oxaborinine-8-carboxylic acid] | – | – | – | – | > 500 | 128 to 256 (≈ 252 to 504 µM) | – | – |
| CCN1CCN(C(=O)N[C@@](C)(C(=O)N[C@H]2Cc3cccc(C(=O)O)c3OB2O)c2csc(N)n2)C(=O)C1=O [Example 97, (R)-3-((R)-2-(2-aminothiazol-4-yl)-2-(4-ethyl-2,3-dioxopiperazine-1-carboxamido)propanamido)-2-hydroxy-3,4-dihydro-2H-benzo[e][1,2]oxaborinine-8-carboxylic acid] | – | – | – | – | > 500 | 128 to 256 (≈ 235 to 470 µM) | – | – |
| CCN1CCN(C(=O)NC(C(=O)N[C@H]2Cc3cccc(C(=O)O)c3OB2O)c2ccsc2)C(=O)C1=O (stereo partly drawn) [Example 137, (3R)-3-(2-(4-ethyl-2,3-dioxopiperazine-1-carboxamido)-2-(thiophen-3-yl)acetamido)-2-hydroxy-3,4-dihydro-2H-benzo[e][1,2]oxaborinine-8-carboxylic acid] | 1 to 2 (≈ 1.94 to 3.89 µM) | < 0.125 | < 0.125 | 4 to 8 (≈ 7.78 to 15.6 µM) | – | – | 30 to 500 | – |
| CCN1CCN(C(=O)NC(C(=O)N[C@H]2Cc3ccc(F)c(C(=O)O)c3OB2O)c2cnc(N)s2)C(=O)C1=O (stereo partly drawn) [Example 152, (3R)-3-(2-(2-aminothiazol-5-yl)-2-(4-ethyl-2,3-dioxopiperazine-1-carboxamido)acetamido)-7-fluoro-2-hydroxy-3,4-dihydro-2H-benzo[e][1,2]oxaborinine-8-carboxylic acid] | 1 to 2 (≈ 1.82 to 3.65 µM) | 0.25 to 0.5 (≈ 0.456 to 0.912 µM) | 0.25 to 0.5 (≈ 0.456 to 0.912 µM) | 1 to 2 (≈ 1.82 to 3.65 µM) | – | – | 30 to 500 | – |
| Nc1ncc(C(NC(=O)N2CCN(CCF)C(=O)C2=O)C(=O)N[C@H]2Cc3ccc(F)c(C(=O)O)c3OB2O)s1 (stereo partly drawn) [Example 153, (3R)-3-(2-(2-aminothiazol-5-yl)-2-(4-(2-fluoroethyl)-2,3-dioxopiperazine-1-carboxamido)acetamido)-7-fluoro-2-hydroxy-3,4-dihydro-2H-benzo[e][1,2]oxaborinine-8-carboxylic acid] | 1 to 2 (≈ 1.77 to 3.53 µM) | 0.25 to 0.5 (≈ 0.441 to 0.883 µM) | 0.25 to 0.5 (≈ 0.441 to 0.883 µM) | 1 to 2 (≈ 1.77 to 3.53 µM) | – | – | 30 to 500 | – |
| CCN1CCN(C(=O)NC(C(=O)N[C@H]2Cc3cccc(C(=O)O)c3OB2O)c2ncc(OC(C)=O)cc2F)C(=O)C1=O (stereo partly drawn) [Example 207, (3R)-3-(2-(5-acetoxy-3-fluoropyridin-2-yl)-2-(4-ethyl-2,3-dioxopiperazine-1-carboxamido)acetamido)-2-hydroxy-3,4-dihydro-2H-benzo[e][1,2]oxaborinine-8-carboxylic acid] | 0.25 to 0.5 (≈ 0.427 to 0.854 µM) | < 0.125 | < 0.125 | 1 to 2 (≈ 1.71 to 3.42 µM) | – | – | – | MIC (E. coli ATCC 25922; ATCC25922, read-out: MIC E. coli 25922): 8 to 16 µg/mL; MIC (E. coli AG100): 8 to 16 µg/mL; MIC (E. coli 901C): < 0.25 µg/mL; MIC (E. coli AG100A): 0.5 to 1 µg/mL; MIC (E. coli D22): 0.5 to 1 µg/mL; MIC (K. pneumoniae SI-117): 32 to 64 µg/mL; MIC (K. pneumoniae UMM): 8 to 16 µg/mL; MIC (K. pneumoniae 848844): 32 to 64 µg/mL |
| CCN1CCN(C(=O)NC(C(=O)N[C@H]2Cc3ccc(Cl)c(C(=O)O)c3OB2O)c2csc(N)n2)C(=O)C1=O (stereo partly drawn) [Example 215, (3R)-3-(2-(2-aminothiazol-4-yl)-2-(4-ethyl-2,3-dioxopiperazine-1-carboxamido)acetamido)-7-chloro-2-hydroxy-3,4-dihydro-2H-benzo[e][1,2]oxaborinine-8-carboxylic acid] | 4 to 8 (≈ 7.08 to 14.2 µM) | 1 to 2 (≈ 1.77 to 3.54 µM) | 0.25 to 0.5 (≈ 0.443 to 0.885 µM) | 4 to 8 (≈ 7.08 to 14.2 µM) | – | – | 30 to 500 | – |
